Legend:
[1] = system: A549 (non-small cell lung cancer cell line); test: MTT antiproliferative assay, A549; type: cell-based, human; conditions: 96 h incubation
Experimental: (§1) The target compounds were evaluated for their antiproliferative activity against different human cancer cell lines, including A549 (non-small cell lung cancer cell line), MCF-7 (breast cancer cell line), HCT116 (colon cancer cell line), PC-3 (prostate cancer cell line) and HL7702 (human liver normal cell line) by using the MTT assay with sorafenib as the control drug.
(§2) The antiproliferative activities of target compounds were determined using a standard MTT assay. Exponentially growing cells A549 (1.5 × 10^3 cells/well), MCF-7 (2.2 × 10^3 cells/well), HCT-116 (800 cells/well), PC-3 (2.0 × 10^3 cells/well) and HL7702 (5.0 × 10^3 cells/well) were seeded into 96-well plates and incubated for 24 h to allow the cells to attach. Then, a fresh medium containing various concentrations of the candidate compounds was added to each well. The cells were then incubated for 96 h, thereafter MTT assays were performed, and cell viability was assessed at 570 nm by a microplate reader (ThermoFisher Scientific (Shanghai) Instrument Co., Ltd., Shanghai, China). The optical densities (OD) at 570 nm were measured, and the IC50 of the target compounds was calculated by using GraphPad Prism 5.0 software to perform nonlinear fitting with the cell survival rate under different concentrations of the compounds.

[2] = system: MCF-7 (breast cancer cell line); test: MTT antiproliferative assay, MCF7; type: cell-based, human; conditions: 96 h incubation
Experimental: as §1, §2

[3] = system: HCT116 (colon cancer cell line); test: MTT antiproliferative assay, HCT116; type: cell-based, human; conditions: 96 h incubation
Experimental: as §1, §2

[4] = system: PC-3 (prostate cancer cell line); test: MTT antiproliferative assay, PC3; type: cell-based, human; conditions: 96 h incubation
Experimental: as §1, §2

[5] = system: HL7702 (human liver normal cell line); test: MTT cytotoxicity assay, HL7702; type: cell-based; conditions: L02, HL7702 normal liver cells, 96 h incubation
Experimental: as §1, §2

MCF-7 cells = test: Cell cycle analysis by flow cytometry (PI staining); type: cell-based, human; conditions: for percentage of cells in the G2/M phase: 72 h
Experimental: The effect of compound 9b on the cell cycle was assayed.
[…] After an incubation period, the cells were collected, centrifuged, and fixed with ice-cold ethanol (70%). The cells were then treated with buffer containing RNAse A and 0.1% Triton X-100 and then stained with the propidium iodide (PI). The samples were analyzed on a flow cytometer (Becton, Dickinson, Franklin Lakes, NJ, USA). Data were analyzed using Flowjo software v9.0.

IC50 [1]	IC50 ([1]; Homo sapiens, A549, 96 h)	IC50 [2]	IC50 ([2]; Homo sapiens, MCF7, 96 h)	IC50 [3]	IC50 ([3]; Homo sapiens, HCT-116, 96 h)	IC50 [4]	IC50 ([4]; Homo sapiens, 96 h)	melting point	SMILES	IC50 [5]	percentage of cells in the G2/M phase (MCF-7 cells; MCF-7, 2.5 μM)	percentage of cells in the G2/M phase (MCF-7 cells; MCF-7, 5 μM)	percentage of cells in the G2/M phase (MCF-7 cells; MCF-7, 10 μM)	percentage of cells in the G2/M phase (MCF-7 cells; MCF-7, 20 μM)	effect on the cell cycle (MCF-7 cells; MCF-7, 2.5-20 μM, concentration-dependent)
3.17 ± 0.22 µM	< 5 µM	2.63 ± 0.08 µM	< 3 µM	2.56 ± 0.26 µM	< 3 µM	3.62 ± 0.27 µM	< 5 µM	160.4 to 162.2 °C	COc1cc(CN(C(=O)Nc2cccc(C(F)(F)F)c2)C2CCN(C)CC2)ccc1OCc1nccc(OCC(F)(F)F)c1C [9d, 1-(3-methoxy-4-((3-methyl-4-(2,2,2-trifluoroethoxy)pyridin-2-yl)methoxy)benzyl)-1-(1-methylpiperidin-4-yl)-3-(3-(trifluoromethyl)phenyl)urea]	> 50 µM	–	–	–	–	–
–	6.04 ± 0.41 µM	–	4.23 ± 0.47 µM	2.93 ± 0.26 µM	< 3 µM	–	6.25 ± 0.43 µM	119 to 121.2 °C	CCOc1ccc(CNC(=O)N(Cc2ccc(OCc3nccc(OCC(F)(F)F)c3C)c(OC)c2)C2CCN(C)CC2)cc1 [9g, 3-(4-ethoxybenzyl)-1-(3-methoxy-4-((3-methyl-4-(2,2,2-trifluoroethoxy)pyridin-2-yl)methoxy)benzyl)-1-(1-methylpiperidin-4-yl)urea]	> 50 µM	–	–	–	–	–
–	> 50 µM	–	> 50 µM	–	7.84 ± 1.4 µM	–	> 50 µM	153 to 154.2 °C	COc1ccc(CNC(=O)NCc2ccc(OCc3nccc(OCC(F)(F)F)c3C)c(OC)c2)cc1 [8g, 1-(3-methoxy-4-((3-methyl-4-(2,2,2-trifluoroethoxy)pyridin-2-yl)methoxy)benzyl)-3-(4-methoxybenzyl)urea]	> 50 µM	–	–	–	–	–
–	29.8 ± 5.09 µM	–	> 50 µM	–	28.8 ± 3.11 µM	–	> 50 µM	179.5 to 180.3 °C	COc1ccc(NC(=O)NCc2ccc(OCc3nccc(OCC(F)(F)F)c3C)c(OC)c2)cc1 [8e, 1-(3-methoxy-4-((3-methyl-4-(2,2,2-trifluoroethoxy)pyridin-2-yl)methoxy)benzyl)-3-(4-methoxyphenyl)urea]	> 50 µM	–	–	–	–	–
4.88 ± 1.94 µM	< 5 µM	–	> 50 µM	–	11.4 ± 3.28 µM	–	> 50 µM	169.9 to 171 °C	COc1cc(CNC(=O)Nc2ccc(C(F)(F)F)cc2)ccc1OCc1nccc(OCC(F)(F)F)c1C [8c, 1-(3-methoxy-4-((3-methyl-4-(2,2,2-trifluoroethoxy)pyridin-2-yl)methoxy)benzyl)-3-(4-(trifluoromethyl)phenyl)urea]	> 50 µM	–	–	–	–	–
–	26.5 ± 5.66 µM	–	> 50 µM	–	9.44 ± 1.22 µM	–	> 50 µM	153.2 to 154.2 °C	COc1cc(CNC(=O)Nc2cccc(C(F)(F)F)c2)ccc1OCc1nccc(OCC(F)(F)F)c1C [8d, 1-(3-methoxy-4-((3-methyl-4-(2,2,2-trifluoroethoxy)pyridin-2-yl)methoxy)benzyl)-3-(3-(trifluoromethyl)phenyl)urea]	> 50 µM	–	–	–	–	–
–	17.7 ± 5.65 µM	–	11 ± 1.68 µM	–	9.33 ± 1.38 µM	–	29.1 ± 5.81 µM	167.8 to 169.1 °C	COc1cc(CNC(=O)Nc2ccc(F)c(Cl)c2)ccc1OCc1nccc(OCC(F)(F)F)c1C [8b, 1-(3-chloro-4-fluorophenyl)-3-(3-methoxy-4-((3-methyl-4-(2,2,2-trifluoroethoxy)pyridin-2-yl)methoxy)benzyl)urea]	> 50 µM	–	–	–	–	–
–	6.16 ± 0.46 µM	–	3.54 ± 0.19 µM	–	3.88 ± 0.36 µM	–	5.26 ± 0.46 µM	–	CNC(=O)c1cc(Oc2ccc(NC(=O)Nc3ccc(Cl)c(C(F)(F)F)c3)cc2)ccn1 [sorafenib, reference compound]	> 50 µM	–	–	–	–	–
–	10.9 ± 2.02 µM	–	> 50 µM	–	23.3 ± 3.12 µM	–	> 50 µM	148.9 to 149.9 °C	CCOc1ccc(CNC(=O)NCc2ccc(OCc3nccc(OCC(F)(F)F)c3C)c(OC)c2)cc1 [8h, 1-(4-ethoxybenzyl)-3-(3-methoxy-4-((3-methyl-4-(2,2,2-trifluoroethoxy)pyridin-2-yl)methoxy)benzyl)urea]	> 50 µM	–	–	–	–	–
4.93 ± 0.46 µM	< 5 µM	2.56 ± 0.07 µM	< 3 µM	2.9 ± 0.16 µM	< 3 µM	3.36 ± 0.17 µM	< 5 µM	138.4 to 140.5 °C	COc1cc(CN(C(=O)Nc2ccc(C(F)(F)F)cc2)C2CCN(C)CC2)ccc1OCc1nccc(OCC(F)(F)F)c1C [9b, 1-(3-methoxy-4-((3-methyl-4-(2,2,2-trifluoroethoxy)pyridin-2-yl)methoxy)benzyl)-1-(1-methylpiperidin-4-yl)-3-(4-(trifluoromethyl)phenyl)urea]	> 50 µM	16.7%	23.5%	27.7%	39.3%	obvious G2/M arrest
–	15.8 ± 1.51 µM	–	4.65 ± 0.73 µM	–	12.9 ± 1.59 µM	–	12.3 ± 1.75 µM	179.1 to 180.8 °C	COc1ccc(NC(=O)N(Cc2ccc(OCc3nccc(OCC(F)(F)F)c3C)c(OC)c2)C2CCN(C)CC2)cc1 [9c, 1-(3-methoxy-4-((3-methyl-4-(2,2,2-trifluoroethoxy)pyridin-2-yl)methoxy)benzyl)-3-(4-methoxyphenyl)-1-(1-methylpiperidin-4-yl)urea]	> 50 µM	–	–	–	–	–
–	5.48 ± 4.36 µM	2.56 ± 0.16 µM	< 3 µM	–	5.82 ± 0.21 µM	4.53 ± 0.33 µM	< 5 µM	176.2 to 177.7 °C	COc1cc(CN(C(=O)Nc2ccc(F)c(Cl)c2)C2CCN(C)CC2)ccc1OCc1nccc(OCC(F)(F)F)c1C [9e, 3-(3-chloro-4-fluorophenyl)-1-(3-methoxy-4-((3-methyl-4-(2,2,2-trifluoroethoxy)pyridin-2-yl)methoxy)benzyl)-1-(1-methylpiperidin-4-yl)urea]	> 50 µM	–	–	–	–	–
–	6.09 ± 0.29 µM	–	3.18 ± 0.3 µM	–	5.18 ± 0.33 µM	–	7.39 ± 0.63 µM	157.5 to 159.1 °C	COc1cc(CN(C(=O)Nc2cccc([N+](=O)[O-])c2)C2CCN(C)CC2)ccc1OCc1nccc(OCC(F)(F)F)c1C [9f, 1-(3-methoxy-4-((3-methyl-4-(2,2,2-trifluoroethoxy)pyridin-2-yl)methoxy)benzyl)-1-(1-methylpiperidin-4-yl)-3-(3-nitrophenyl)urea]	> 50 µM	–	–	–	–	–
–	17.5 ± 2.95 µM	2.59 ± 0.29 µM	< 3 µM	–	4.41 ± 0.14 µM	4.1 ± 0.19 µM	< 5 µM	127.3 to 129.4 °C	COc1cc(CN(C(=O)Nc2ccc(OC(F)(F)F)cc2)C2CCN(C)CC2)ccc1OCc1nccc(OCC(F)(F)F)c1C [9a, 1-(3-methoxy-4-((3-methyl-4-(2,2,2-trifluoroethoxy)pyridin-2-yl)methoxy)benzyl)-1-(1-methylpiperidin-4-yl)-3-(4-(trifluoromethoxy)phenyl)urea]	> 50 µM	–	–	–	–	–
–	5.3 ± 1.45 µM	–	> 50 µM	–	7.25 ± 0.87 µM	–	> 50 µM	158.8 to 159.3 °C	COc1cc(CNC(=O)Nc2ccc(OC(F)(F)F)cc2)ccc1OCc1nccc(OCC(F)(F)F)c1C [8a, 1-(3-methoxy-4-((3-methyl-4-(2,2,2-trifluoroethoxy)pyridin-2-yl)methoxy)benzyl)-3-(4-(trifluoromethoxy)phenyl)urea]	> 50 µM	–	–	–	–	–
–	12.4 ± 0.6 µM	–	13.3 ± 2.27 µM	–	13.3 ± 2.78 µM	–	15.9 ± 0.73 µM	168.9 to 170.5 °C	COc1cc(CNC(=O)Nc2cccc([N+](=O)[O-])c2)ccc1OCc1nccc(OCC(F)(F)F)c1C [8f, 1-(3-methoxy-4-((3-methyl-4-(2,2,2-trifluoroethoxy)pyridin-2-yl)methoxy)benzyl)-3-(3-nitrophenyl)urea]	> 50 µM	–	–	–	–	–
–	9.85 ± 4.4 µM	–	> 50 µM	–	10.9 ± 2.85 µM	–	> 50 µM	159.4 to 161.4 °C	COc1cc(CNC(=O)NCc2ccc(N(C)C)cc2)ccc1OCc1nccc(OCC(F)(F)F)c1C [8i, 1-(4-(dimethylamino)benzyl)-3-(3-methoxy-4-((3-methyl-4-(2,2,2-trifluoroethoxy)pyridin-2-yl)methoxy)benzyl)urea]	> 50 µM	–	–	–	–	–
